Target: hDGAT2 (Homo sapiens (Human), UniProt Q96PD7)
Assay: DGAT2 Enzymatic Activity Assay (triolein formation, LC/MS/MS)
Assay type: biochemical
Conditions: Sf-9 membrane prep expressing hDGAT2; 25 μM diolein, 10 μM oleoyl-CoA; room temperature; read-out: IC50 values for inhibition of DGAT2
Protocol: In Vitro DGAT2 ASSAYS and Determination of IC50 Values for DGAT2 Inhibitors
Insect Cell Expression and Membrane Preparation
Sf-9 insect cells were maintained in Grace's insect cell culture medium with 10% heated-inactivated fetal bovine serum, 1% Pluronic F-68 and 0.14 μg/ml Kanamycine sulfate in Erlenmeyer flasks at 28° C. in a shaker incubator. After infection with untagged hDGAT2 baculovirus at multiplicity of infection (MOI) 0.1 for 48 hours, cells were harvested. Cell pellets were suspended in buffer containing 10 mM Tris-HCl (pH 7.5), 1 mM EDTA (pH 8.0), 250 mM sucrose and Complete Protease Inhibitor Cocktail (Roche Diagnostics Corp., Indianapolis, Ill.), and sonicated on ice. Membrane fractions were isolated by ultracentrifugation (100,000× g pellet), resuspended in the same buffer, and frozen (−80° C.) for later use. The protein concentration was determined with the BCA Protein Assay kit (Pierce Biotechnology Inc., Rockford, Ill.). Expression of protein levels was analyzed by immunoblotting with goat polyclonal DGAT2 antibody C-15 and donkey anti-goat IgG HRP (Santa Cruz Biotechnology, Inc., Santa Cruz, Calif.) followed by detection with ECL reagent (GE Healthcare, Piscataway, N.J.).
LC/MS/MS analyses were performed using Thermal Fisher's LX4-TSQ Vantage system. This system consists of an Agilent binary high-performance liquid chromatography (HPLC) pumps and a TSQ Vantage triple quadrupole MS/MS instrument. For each sample, 2 μL samples from the top organic layer of in-plate liquid-liquid extraction were injected onto a Thermo Betabasic C4 column (2.1 mm×20 mm, 5 μm particle size). The samples were then eluted using the following conditions; mobile phase: methanol/water with 0.1% ammonium format=92/8 (v/v), flow rate: 1 mL/min, temperature: 25° C. Data was acquired in positive mode using a heated electrospray ionization (HESI) interface. The operational parameters for the TSQ Vantage MS/MS instrument were a spray voltage of 3000 V, capillary temperature of 280° C., vaporizer temperature 400° C., shealth gas 60 arbitrary unit, Aux gas 40 arbitrary units, S-lens 113 and collision gas 0.16 Pascals. […] (SRM) chromatograms of triolein (Q1: 902.9>Q3:602.3) and internal standard (Q1: 902.9>Q3:602.3) were collected for 40 sec. The peak area was integrated by Xcalibur Quan software. The ratio between the triolein generated in the reaction and spiked in internal standard were used to generate percentage inhibition and IC50 values. Compound percentage inhibition was calculated by the following formula: Inhibition %=1−[(compound response−low control)/(high control−low control)]×100%. Potent compounds were titrated and IC50 were calculated by 4 parameter sigmoidal curve fitting formula.
DGAT2 Enzymatic Activity Assay
DGAT2 activity was determined by measuring the amount of enzymatic product triolein (1,2,3-Tri(cis-9-octadecenoyl)glycerol) using the membrane prep mentioned above. The assay was carried out in deep well 384 plates in a final volume of 40 μL at room temperature. The assay mixture contained the following: assay buffer (100 mM Tris·Cl, pH 7.0, 20 mM MgCl2, 5% ethanol), 25 μM of diolein, 10 μM of oleoyl-CoA and 10 ng/μL of DGAT2 membrane.

hDGAT2, sequence (Q96PD7 whole entry): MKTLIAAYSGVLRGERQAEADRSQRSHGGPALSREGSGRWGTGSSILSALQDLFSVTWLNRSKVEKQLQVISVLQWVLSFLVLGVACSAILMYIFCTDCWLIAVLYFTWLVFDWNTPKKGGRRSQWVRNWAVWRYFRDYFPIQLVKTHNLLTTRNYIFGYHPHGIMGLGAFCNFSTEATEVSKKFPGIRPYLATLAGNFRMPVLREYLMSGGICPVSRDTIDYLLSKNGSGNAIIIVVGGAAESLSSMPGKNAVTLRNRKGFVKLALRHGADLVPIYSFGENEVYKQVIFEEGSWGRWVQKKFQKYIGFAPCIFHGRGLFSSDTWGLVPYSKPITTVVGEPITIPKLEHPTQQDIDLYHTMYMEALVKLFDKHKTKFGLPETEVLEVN

| SMILES | IC50 [µM] |
| --- | --- |
| COC(=O)c1cccc(-c2ccc(CNC(=O)C3CCN(c4ccc(C(F)(F)F)cc4)CC3)c3c2CCN(C(=O)NC(C)(C)C)C3)c1 [Example 1, methyl 3-(2-(tert-butylcarbamoyl)-8-((1-(4-(trifluoromethyl)phenyl)piperidine-4-carboxamido)methyl)-1,2,3,4-tetrahydroisoquinolin-5-yl)benzoate] | 0.00175 |
| CC(C)(C)NC(=O)N1CCc2c(-c3cccc(OC(F)(F)F)c3)ccc(CNC(=O)c3cc(C(F)(F)F)n[nH]3)c2C1 [Example 2, N-(tert-butyl)-5-(3-(trifluoromethoxy)phenyl)-8-((3-(trifluoromethyl)-1H-pyrazole-5-carboxamido)methyl)-3,4-dihydroisoquinoline-2(1H)-carboxamide] | 0.104 |
| COC(=O)c1cccc(-c2ccc(CNC(=O)c3cc(C(C)(C)C)nn3C)c3c2CCN(C(=O)NC(C)(C)C)C3)c1 [Example 3, methyl 3-(8-((3-(tert-butyl)-1-methyl-1H-pyrazole-5-carboxamido)methyl)-2-(tert-butylcarbamoyl)-1,2,3,4-tetrahydroisoquinolin-5-yl)benzoate] | 0.017 |
| COc1cccc(-c2ccc(CNC(=O)c3cc(C(F)(F)F)n[nH]3)c3c2CCN(C(=O)NC(C)(C)C)C3)c1 [Example 4, N-(tert-butyl)-5-(3-methoxyphenyl)-8-((3-(trifluoromethyl)-1H-pyrazole-5-carboxamido)methyl)-3,4-dihydroisoquinoline-2(1H)-carboxamide] | 0.0414 |
| COc1cccc(-c2ccc(CNC(=O)c3nccc4ccccc34)c3c2CCN(C(=O)NC(C)(C)C)C3)c1 [Example 5, N-((2-(tert-butylcarbamoyl)-5-(3-methoxyphenyl)-1,2,3,4-tetrahydroisoquinolin-8-yl)methyl)isoquinoline-1-carboxamide] | 0.135 |
| CC(C)(C)NC(=O)N1CCc2c(-c3cccc(C(F)(F)F)c3)ccc(C(=O)NCCc3nc4cc(Cl)ccc4[nH]3)c2C1 [Example 6, N^2-(tert-butyl)-N^8-(2-(5-chloro-1H-benzo[d]imidazol-2-yl)ethyl)-5-(3-(trifluoromethyl)phenyl)-3,4-dihydroisoquinoline-2,8(1H)-dicarboxamide] | 0.0119 |
| CC(C)(C)NC(=O)N1CCc2c(-c3cccc(C(F)(F)F)c3)ccc(C(=O)NCCc3nc4cc(Cl)c(Cl)cc4[nH]3)c2C1 [Example 7, N^2-(tert-butyl)-N^8-(2-(5,6-dichloro-1H-benzo[d]imidazol-2-yl)ethyl)-5-(3-(trifluoromethyl)phenyl)-3,4-dihydroisoquinoline-2,8(1H)-dicarboxamide] | 0.0159 |
| CC(C)(C)NC(=O)N1CCc2c(-c3cccc(C(F)(F)F)c3)ccc(C(=O)NCCc3nc4ccc(F)cc4[nH]3)c2C1 [Example 8, N^2-(tert-butyl)-N^8-(2-(5-fluoro-1H-benzo[d]imidazol-2-yl)ethyl)-5-(3-(trifluoromethyl)phenyl)-3,4-dihydroisoquinoline-2,8(1H)-dicarboxamide] | 0.0329 |
| CC(C)(C)NC(=O)N1CCc2c(-c3cccc(C(F)(F)F)c3)ccc(C(=O)NCCc3nc4ccccc4[nH]3)c2C1 [Example 9, N^8-(2-(1H-benzo[d]imidazol-2-yl)ethyl)-N^2-(tert-butyl)-5-(3-(trifluoromethyl)phenyl)-3,4-dihydroisoquinoline-2,8(1H)-dicarboxamide] | 0.0511 |
| CC(C)(C)NC(=O)N1CCc2c(-c3cccc(C(F)(F)F)c3)ccc(C(=O)NCc3cncc4ccccc34)c2C1 [Example 10, N^2-(tert-butyl)-N^8-(isoquinolin-4-ylmethyl)-5-(3-(trifluoromethyl)phenyl)-3,4-dihydroisoquinoline-2,8(1H)-dicarboxamide] | 0.0669 |
| CC(C)(C)NC(=O)N1CCc2c(-c3cccc(C(F)(F)F)c3)ccc(C(=O)NCc3cccc4cccnc34)c2C1 [Example 11] | 0.0676 |
| CC(C)(C)NC(=O)N1CCc2c(-c3cccc(C(F)(F)F)c3)ccc(C(=O)NCc3cccc4cnccc34)c2C1 [Example 12, N^2-(tert-butyl)-N^8-(isoquinolin-5-ylmethyl)-5-(3-(trifluoromethyl)phenyl)-3,4-dihydroisoquinoline-2,8(1H)-dicarboxamide] | 0.0686 |
| COc1ccc2nc(CCNC(=O)c3ccc(-c4cccc(OC(F)(F)F)c4)c4c3CN(C(=O)NC(C)(C)C)CC4)[nH]c2c1 [Example 13, N^2-(tert-butyl)-N^8-(2-(6-methoxy-1H-benzo[d]imidazol-2-yl)ethyl)-5-(3-(trifluoromethoxy)phenyl)-3,4-dihydroisoquinoline-2,8(1H)-dicarboxamide] | 0.0689 |
| Cc1ccc2[nH]c(CCNC(=O)c3ccc(-c4cccc(C(F)(F)F)c4)c4c3CN(C(=O)NC(C)(C)C)CC4)nc2c1 [Example 14, N^2-(tert-butyl)-N^8-(2-(5-methyl-1H-benzo[d]imidazol-2-yl)ethyl)-5-(3-(trifluoromethyl)phenyl)-3,4-dihydroisoquinoline-2,8(1H)-dicarboxamide] | 0.103 |
| Cc1nc2ccccn2c1CNC(=O)c1ccc(-c2cccc(C(F)(F)F)c2)c2c1CN(C(=O)NC(C)(C)C)CC2 [Example 15, N^2-(tert-butyl)-N^8-((2-methylimidazo[1,2-a]pyridin-3-yl)methyl)-5-(3-(trifluoromethyl)phenyl)-3,4-dihydroisoquinoline-2,8(1H)-dicarboxamide] | 0.12 |

Other lines, results leading:

| IC50 [µM] | SMILES |
| --- | --- |
| 0.214 | CC(C)(C)NC(=O)N1CCc2c(-c3cccc(C(F)(F)F)c3)ccc(C(=O)N[C@@H](CO)c3ccc(C(F)(F)F)nc3)c2C1 (racemic) [Example 21, (R/S)-N^2-(tert-butyl)-N^8-(2-hydroxy-1-(6-(trifluoromethyl)pyridin-3-yl)ethyl)-5-(3-(trifluoromethyl)phenyl)-3,4-dihydroisoquinoline-2,8(1H)-dicarboxamide] |
| 1.02 | CC(C)(C)NC(=O)N1CCc2c(-c3cccc(C(F)(F)F)c3)ccc(C(=O)N[C@H]3C[C@@H]3c3ccccc3)c2C1 (relative stereo) [Example 65, N^2-(tert-butyl)-N^8-((trans)-2-phenylcyclopropyl)-5-(3-(trifluoromethyl)phenyl)-3,4-dihydroisoquinoline-2,8(1H)-dicarboxamide] |
| 0.528 | CC(C)(C)NC(=O)N1CCc2c(-c3cccc(C(F)(F)F)c3)ccc(C(=O)NC[C@H]3C[C@@H]3c3ccccc3)c2C1 (relative stereo) [Example 69, N^2-(tert-butyl)-N^8-(((trans)-2-phenylcyclopropyl)methyl)-5-(3-(trifluoromethyl)phenyl)-3,4-dihydroisoquinoline-2,8(1H)-dicarboxamide] |
| 0.126 | CC(C)(C)NC(=O)N1CCc2c(-c3cccc(C(F)(F)F)c3)ccc(C(=O)NCc3cccc4ncccc34)c2C1 [Example 16, N^2-(tert-butyl)-N^8-(quinolin-5-ylmethyl)-5-(3-(trifluoromethyl)phenyl)-3,4-dihydroisoquinoline-2,8(1H)-dicarboxamide] |
| 0.132 | CC(C)(C)NC(=O)N1CCc2c(-c3cccc(C(F)(F)F)c3)ccc(C(=O)NCc3ccc4nonc4c3)c2C1 [Example 17, N^8-(benzo[c][1,2,5]oxadiazol-5-ylmethyl)-N^2-(tert-butyl)-5-(3-(trifluoromethyl)phenyl)-3,4-dihydroisoquinoline-2,8(1H)-dicarboxamide] |
| 0.133 | CC(C)(C)NC(=O)N1CCc2c(-c3cccc(C(F)(F)F)c3)ccc(C(=O)NCCc3cn4ccsc4n3)c2C1 [Example 18, N^2-(tert-butyl)-N^8-(2-(imidazo[2,1-b]thiazol-6-yl)ethyl)-5-(3-(trifluoromethyl)phenyl)-3,4-dihydroisoquinoline-2,8(1H)-dicarboxamide] |
| 0.197 | CC(C)(C)NC(=O)N1CCc2c(-c3cccc(C(F)(F)F)c3)ccc(C(=O)NCc3nccc4ccccc34)c2C1 [Example 19, N^2-(tert-butyl)-N^8-(isoquinolin-1-ylmethyl)-5-(3-(trifluoromethyl)phenyl)-3,4-dihydroisoquinoline-2,8(1H)-dicarboxamide] |
